From patent publication EP0224257A1, “Stabilized benzimidazole derivatives” (SYNTEX (U.S.A.) INC., priority 1985, dated 1987)

Assay: Blood plasma levels after oral administration to dogs
Type: in vivo
Conditions: 10 mg/kg, compared with oxfendazole in commercially available form
Protocol: Dogs were administered orally either amorphous or crystalline oxfendazole at a dose of 10 mg/kg.
Blood samples were drawn and analyzed before administration and on days 1, 2, 3, 7, 10 and 13 following administration. The area under the curve was calculated for plasma concentration vs time profile.

For `COC(=O)Nc1nc2ccc([S+]([O-])c3ccccc3)cc2[nH]1` (stereo not shown) [amorphous oxfendazole, methyl 5-(phenylsulfinyl)-1H-benzimidazol-2-yl carbamate], the “plasma level of oxfendazole” value was “higher plasma level”.
